Patent US20240425589A1, “CYTOTOXICITY-INDUCING THERAPEUTIC AGENT FOR USE IN TREATMENT OF CANCER” (CHUGAI SEIYAKU KABUSHIKI KAISHA, priority 2021, published 2024)
Counter-ions that a name gives are not always drawn.

Assays:
[1] = tested on: TGF-β1 expression in NIH:OVCAR-3; test: TGF-β1 expression by quantitative PCR after chemotherapeutic agents; format: cell-based, human; details: 6 days; same treated cells as Example 21.1; vs untreated
Description: Next, the cDNAs prepared from the human ovarian cancer cell line (NIH:OVCAR-3, ATCC) treated with carboplatin, cisplatin, irinotecan, or gemcitabine, which were used in Example 21.1, were used to perform real-time PCR with TGF-β1-specific primers (Power SYBR (registered trademark) Green Master Mix, ThermoFisher), and TGF-β1 expression was analyzed (QuantStudio 12K Flex Real-Time PCR System, ThermoFisher).
Sequences of the primers for human TGF-β1 are as follows: […]
The same primers as those in the above-mentioned Example 21.1 were used as the primers for human GAPDH used as the internal control.

[2] = tested on: CLDN6 expression in NIH:OVCAR-3; test: CLDN6 expression by quantitative PCR after chemotherapeutic agents; format: cell-based, human; details: 6 days; carboplatin 0.5 μg/mL, cisplatin 0.1 μg/mL, irinotecan 0.25 μg/mL, gemcitabine 2 ng/mL; vs untreated
Description: Various chemotherapeutic agents were added to human ovarian cancer cell line (NIH:OVCAR-3, ATCC) to analyze the change in CLDN6 expression. Regarding the NIH:OVCAR-3 cells seeded on culture plates, RNAs were purified (RNeasy Mini Kit, QIAGEN) from cells to which no pharmaceutical agent was added (untreated cells), or from cells collected 6 days after addition of carboplatin (0.5 μg/mL), cisplatin (0.1 μg/mL), irinotecan (0.25 μg/mL), or gemcitabine (2 ng/mL), and then cDNA synthesis (Superscript IV VILO Master Mix, ThermoFisher) was performed. By using the cDNAs as templates, real-time PCR was performed using CLDN6-specific primers (Power SYBR (registered trademark) Green Master Mix, ThermoFisher) to analyze CLDN6 expression (QuantStudio 12K Flex Real-Time PCR System, ThermoFisher). Sequences of the primers for human CLDN6 and the primers for human GAPDH that were used as the internal control are as follows: […]

[3] = tested on: SNG-M; test: SNG-M xenograft in huNOG mice, combination with carboplatin; format: in vivo; details: 30 days after transplantation; CS4135 0.5 mg/kg iv day 13, carboplatin 40 mg/kg ip days 13, 16, 20
Description: In this test, NOG (huNOG) mice (described in the aforementioned Example 13) transplanted with human uterus cancer cell line SNG-M and human CD34-positive cells were used. The SNG-M cell line was transplanted subcutaneously to the right flank of the mice, and the mice were divided into groups 13 days after transplantation. Individuals whose tumor volume reached 130 to 244 mm^3 were divided into groups. Vehicle 1 and CS4135 were administered into the mouse tail vein 13 days after transplantation. PBS containing 0.05% Tween-20 was used as Vehicle 1. Vehicle 2 and carboplatin (Bristol Myers Squibb Company) were administered intraperitoneally to the mice 13, 16, and 20 days after transplantation. Physiological saline was used as Vehicle 2.
Tumor volume was measured 13, 16, 20, 23, 26, and 30 days after transplantation, and the average tumor volume was indicated for each group.
The tumor volume was calculated by the following equation: […]
(§1) Tumor Growth Inhibition (TGI) was calculated by the following equation: […]

[4] = tested on: OVCAR3; test: OVCAR3 xenograft in huNOG mice, combination with carboplatin; format: in vivo; details: 56 days after transplantation; CS4135 0.1 mg/kg iv days 38, 45 (sequential: 48, 55), carboplatin 60 mg/kg ip days 38, 45
Description: In this test, NOG (huNOG) mice (described in the aforementioned Example 13) transplanted with ovarian cancer cell line OVCAR3 and human CD34-positive cells were used. The OVCAR3 cell line was transplanted subcutaneously to the right flank of the mice, and the mice were divided into groups 38 days after transplantation. Individuals whose tumor volume reached 119 to 210 mm^3 were divided into groups. Vehicle 1 and CS4135 were administered into the mouse tail vein 38 and 45 days after transplantation. PBS containing 0.05% Tween-20 was used as Vehicle 1. Vehicle 2 and carboplatin (Bristol Myers Squibb Company) were administered intraperitoneally to the mice 38 and 45 days after transplantation. Physiological saline was used as Vehicle 2.
Tumor volume was measured 38, 42, 45, 48, 52, and 56 days after transplantation, and the average tumor volume was indicated for each group. The tumor volume was calculated by the following equation: […]
as §1

[5] = tested on: CLDN6 expression in NIH-OVCAR3, NCI-H1435, SNG-M; test: CLDN6 expression by FACS after platinum preparation treatment; format: cell-based, human; details: 5 days; cisplatin 0.1 or 0.6 μg/mL, carboplatin 0.5 or 5 μg/mL; vs untreated
Description: Human ovarian cancer cell line (NIH-OVCAR3, ATCC), human lung cancer cell line (NCI-H1435, ATCC), and human endometrial cancer cell line (SNG-M, Health Science Research Resources Bank) were treated with cisplatin (CDDP, Nichiiko) or carboplatin (CBDCA, Sandoz) to analyze the effect of the treatment on CLDN6 expression.
Each cell was subjected to the addition of cisplatin at 0.1 μg/mL (OVCAR3) or 0.6 μg/mL (H1435, SNG-M), or carboplatin at 0.5 μg/mL (OVCAR3) or 5 μg/mL (H1435, SNG-M), and then cultured for five days. After culturing, the cells were recovered, and CLDN6 expression was analyzed by FACS.
In FACS analysis, cells were detached from the culturing flask and then reacted with an anti-CLDN6 antibody (AE3-20 mIgG2a, Japanese Patent No. 5848863) or an isotype antibody (mIgG2a, BioLegend) at 2 μg/mL, at 4° C. for one hour. Next, reaction with Alexa Flour 488-labeled anti-mouse IgG (ThermoFisher) at 10 μg/mL was performed at 4° C. for one hour, and the amount of CLDN6 expression was analyzed using a flow cytometer (FACSVerse, BD Biosciences).

[6] = tested on: CLDN6 expression in SNG-M tumor; test: CLDN6 expression by real-time PCR in SNG-M tumor transplant; format: in vivo, NOD/scid mice; details: 40 mg/kg or 80 mg/kg ip twice, vs vehicle
Description: SNG-M (1×10^7 cells) was transplanted subcutaneously to NOD/scid mice (CLEA Japan). After tumor engraftment, the vehicle (physiological saline) or carboplatin at 40 mg/kg or 80 mg/kg was administered intraperitoneally on the day of transplantation (day 0) and 3 days after transplantation (day 3), and the tumor was sampled 6 days after transplantation (day 6).
RNA was purified from the tumor (RNeasy Mini Kit, QIAGEN), and then cDNA synthesis was performed (Superscript IV VILO Master Mix, ThermoFisher). Using the cDNAs as templates, real-time PCR was performed using a CLDN6-specific primer (Power SYBR (registered trademark) Green Master Mix, ThermoFisher) to analyze CLDN6 expression (QuantStudio 12K Flex Real-Time PCR System, ThermoFisher).
Sequences of the primers for human CLDN6 and primers for human GAPDH used as an internal control are as follows: […]

[7] = tested on: NIH:OVCAR-3; test: OVCAR3 xenograft in huNOG mice, combination with irinotecan hydrochloride; format: in vivo; details: 60 days after transplantation; CS4135 0.1 mg/kg, irinotecan hydrochloride 25 mg/kg, iv days 39, 46
Description: In this test, NOG(huNOG) mice (described in the aforementioned Example 13) transplanted with ovarian cancer cell line NIH:OVCAR-3 (OVCAR3, ATCC) and human CD34-positive cells were used. The OVCAR3 cell line was transplanted subcutaneously to the right flank of the mice, and the mice were divided into groups 39 days after transplantation. Individuals whose tumor volume reached 160 to 263 mm^3 were divided into groups. Vehicle 1 and CS4135 were administered into the mouse tail vein 39 and 46 days after transplantation. PBS containing 0.05% Tween-20 was used as Vehicle 1. Vehicle 2 and irinotecan hydrochloride (Sawai Pharmaceutical Co., Ltd.) were administered into the mouse tail vein 39 and 46 days after transplantation. Physiological saline was used as Vehicle 2.
Tumor volume was measured 39, 42, 46, 49, 53, 57, and 60 days after transplantation, and the average tumor volume is indicated for each group. The tumor volume was calculated by the following equation: […]
as §1

[8] = tested on: TGF-β1 expression in cancer cells; details: reported in literature; cited from earlier work
[9] = tested on: CLDN6 expression in OV-90; test: CLDN6 expression by FACS after PARP inhibitor, OV-90; format: cell-based, human; details: BRAC1 wildtype OV-90, 0.03-3 μM, 3 days
Description: (§2) Induction of CLDN6 expression by a PARP inhibitor (olaparib) was assessed. BRCA1-deficient ovarian cancer cell line UWB1.289 (ATCC) or BRAC1 wildtype ovarian cancer cell line OV-90 (ATCC) which express human CLDN6 were used.
(§3) Target cells (3×10^5 cells) were plated onto a 6-well plate at 3 mL/well. After culturing overnight, olaparib was added at a final concentration of 0.03, 0.1, 0.3, 1, or 3 μM. DMSO was added to the control well. After incubating the plate for 3 days, the cells were recovered and the amount of CLDN6 expression on the cell surface was determined by FACS analysis using an anti-CLDN6 antibody. The level of fluorescence in the target cells recovered from the wells, to which various concentrations of olaparib were added, are shown in FIG. 27, wherein the level of fluorescence in the target cells recovered from the control well was defined as 1.

[10] = tested on: CLDN6 expression in UWB1.289; test: CLDN6 expression by FACS after PARP inhibitor, UWB1.289; format: cell-based, human; details: BRCA1-deficient UWB1.289, 0.03-3 μM, 3 days
Description: as §2, §3

With `N.N.O=C([O-])C1(C(=O)[O-])CCC1.[Pt+2]` [Carboplatin, carboplatin] as the molecule, how does the TGF-β1 expression [1] read?
Its TGF-β1 expression is “Increase in TGF-β1 expression was observed”.

And the CLDN6 expression [2]?
Its CLDN6 expression is “Increase in CLDN6 expression was observed”.

What about the “Tumor growth inhibition: TGI” value [3] of the same molecule?
The value was 44%.

And the “Tumor growth inhibition: TGI” value [4]?
Its value is −9%.

What about the CLDN6 expression [5] of the same molecule?
The CLDN6 expression was “increase in CLDN6 expression”.

What about the “CLDN6 expression in the tumor” value [6] of the same molecule?
Its value is “increased”.

For `CCc1c2c(nc3ccc(OC(=O)N4CCC(N5CCCCC5)CC4)cc13)-c1cc3c(c(=O)n1C2)COC(=O)[C@]3(O)CC` [Irinotecan hydrochloride, irinotecan hydrochloride, reference compound], which “Tumor growth inhibition: TGI” value [7] is on record?
The value was 65%.

With `N.N.[Cl][Pt][Cl]` [cisplatin] as the molecule, how does the TGF-β1 expression [1] read?
The TGF-β1 expression was “Increase in TGF-β1 expression was observed”.

And the CLDN6 expression [2]?
The CLDN6 expression was “Increase in CLDN6 expression was observed”.

And the CLDN6 expression [5]?
The CLDN6 expression was “increase in CLDN6 expression”.

For `COc1cccc2c1C(=O)c1c(O)c3c(c(O)c1C2=O)C[C@@](O)(C(=O)CO)C[C@@H]3O[C@H]1C[C@H](N)[C@H](O)[C@H](C)O1` [doxorubicin], which “expression of TGF-β1 in cancer cells” value [8] is on record?
The value was “induce expression of TGF-β11 in cancer cells”.

Which TGF-β1 expression [1] does the source give for `Nc1ccn([C@@H]2O[C@H](CO)[C@@H](O)C2(F)F)c(=O)n1` [gemcitabine] here?
Its TGF-β1 expression is “Increase in TGF-β1 expression was observed”.

And the CLDN6 expression [2]?
The CLDN6 expression was “Increase in CLDN6 expression was observed”.

For `CCc1c2c(nc3ccc(OC(=O)N4CCC(N5CCCCC5)CC4)cc13)-c1cc3c(c(=O)n1C2)COC(=O)[C@]3(O)CC` [irinotecan], which TGF-β1 expression [1] is on record?
The TGF-β1 expression was “Increase in TGF-β1 expression was observed”.

What about the CLDN6 expression [2] of the same molecule?
Its CLDN6 expression is “Increase in CLDN6 expression was observed”.

For `O=C(c1cc(Cc2n[nH]c(=O)c3ccccc23)ccc1F)N1CCN(C(=O)C2CC2)CC1` [olaparib], which CLDN6 expression induction [9] is on record?
Its CLDN6 expression induction is “enhancement of CLDN6 expression induction was not observed at any concentration”.

What about the CLDN6 expression induction [10] of the same molecule?
The CLDN6 expression induction was “concentration-dependent enhancement of CLDN6 expression induction was observed”.

Which “expression of TGF-β1 in cancer cells” value [8] does the source give for `CC(=O)O[C@H]1C(=O)[C@@]2(C)[C@H]([C@H](OC(=O)c3ccccc3)[C@]3(O)C[C@H](OC(=O)[C@H](O)[C@@H](NC(=O)c4ccccc4)c4ccccc4)C(C)=C1C3(C)C)[C@]1(OC(C)=O)CO[C@@H]1C[C@@H]2O` [paclitaxel] here?
The value was “induce expression of TGF-β11 in cancer cells”.
